Assay results reported in ChEMBL document CHEMBL1201862, “PubChem BioAssay data set” (2004).
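Protocol summary: plate cells (96-well), add compound at 5 concentrations, incubate 48 h, interpolate endpoints linearly. GI50 = concentration required for 50% inhibition of growth.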 Active and inactive are the calls of the source. Rule as the data show it: active = GI50 up to about 1.1 µM and inactive = higher.

Columns and labels:
Test in all cases: NCI tumour cell line growth inhibition, 48 h
SK-OV-3 = tested on: SK-OV-3
OVCAR-4 = tested on: OVCAR-4
OVCAR-5 = tested on: OVCAR-5
CAKI-1 = tested on: CAKI-1
M14 = tested on: M14
OVCAR-8 = tested on: OVCAR-8
UO-31 = tested on: UO-31
SNB-19 = tested on: SNB-19
CCRF-CEM = tested on: CCRF-CEM
SF-539 = tested on: SF-539
SR = tested on: SR
MCF7 = tested on: MCF7
MOLT-4 = tested on: MOLT-4
DU-145 = tested on: DU-145
EKVX = tested on: EKVX
HT-29 = tested on: HT-29
MDA-N = tested on: MDA-N
HCC 2998 = tested on: HCC 2998
SK-MEL-2 = tested on: SK-MEL-2

Measured: GI50

O=C(OC1C2OC(=O)c3cc(O)c(O)c(O)c3Oc3cc4c(c(O)c3O)-c3c(cc(O)c(O)c3O)C(=O)OCC3OC(O)C(OC(=O)c5cc(O)c(O)c(O)c5Oc5cc6c(c(O)c5O)-c5c(cc(O)c(O)c5O)C(=O)OC1C(COC6=O)OC2O)C(OC(=O)c1cc(O)c(O)c(O)c1)C3OC4=O)c1cc(O)c(O)c(O)c1 (configuration not stated)
inactive: SK-OV-3 12.5 µM | OVCAR-4 17.8 µM | OVCAR-5 40.1 µM | CAKI-1 38.3 µM | M14 35.2 µM | OVCAR-8 27 µM | UO-31 4.8 µM | SNB-19 17.6 µM | CCRF-CEM 3.61 µM | SF-539 24.4 µM | SR 4.61 µM | MCF7 50.7 µM | MOLT-4 3.46 µM | DU-145 41 µM | EKVX 12.5 µM | HT-29 17.9 µM | MDA-N 21.2 µM

O/N=C\c1c(O)ccc2ccccc12
inactive: SK-OV-3 36.9 µM | OVCAR-5 > 100 µM | CAKI-1 30.8 µM | M14 68.2 µM | OVCAR-8 9.12 µM | SNB-19 > 100 µM | CCRF-CEM 47.2 µM | HCC 2998 31.7 µM | SF-539 44 µM | SR 21.2 µM | MCF7 37.8 µM | EKVX 33 µM | HT-29 54.5 µM | MDA-N 66.5 µM

CCCCCCN1C(=O)CC(=O)N(CCCCCC)S1(=O)=O
inactive: SK-OV-3 21.8 µM | OVCAR-4 20 µM | OVCAR-5 19.8 µM | CAKI-1 22 µM | M14 32.4 µM | UO-31 1.56 µM | SNB-19 41.9 µM | CCRF-CEM 21.7 µM | SF-539 19.8 µM | SR 26.9 µM | MCF7 36 µM | MOLT-4 23.3 µM | DU-145 65.8 µM | EKVX 20.8 µM | SK-MEL-2 12.7 µM | HT-29 21.6 µM

O=C(O)CCC(NC(=O)c1ccc(OCc2nc3cc(C(F)(F)F)ccc3nc2-c2ccccc2)cc1)C(=O)O (configuration not stated)
inactive: SK-OV-3 > 100 µM | OVCAR-4 > 100 µM | OVCAR-5 > 100 µM | CAKI-1 45.4 µM | M14 > 100 µM | OVCAR-8 > 100 µM | UO-31 > 100 µM | SNB-19 > 100 µM | CCRF-CEM > 100 µM | HCC 2998 > 100 µM | SF-539 > 100 µM | SR 9.31 µM | MCF7 > 100 µM | MOLT-4 > 100 µM | DU-145 > 100 µM | EKVX > 100 µM | SK-MEL-2 > 100 µM | HT-29 > 100 µM

O=C1OCC2(CO1)CC1C=CC2C1 (configuration not stated)
inactive: SK-OV-3 > 100 µM | OVCAR-4 > 100 µM | OVCAR-5 > 100 µM | CAKI-1 > 100 µM | M14 > 100 µM | UO-31 > 100 µM | SNB-19 > 100 µM | HCC 2998 > 100 µM | SF-539 > 100 µM | SR > 100 µM | MCF7 > 100 µM | MOLT-4 > 100 µM | DU-145 > 100 µM | EKVX > 100 µM | SK-MEL-2 > 100 µM | HT-29 > 100 µM | MDA-N > 100 µM

CCNC(=O)/C=C/CCC#Cc1ccc(-c2ccc(-c3cccs3)s2)s1
inactive: SK-OV-3 > 100 µM | OVCAR-4 > 100 µM | OVCAR-5 > 100 µM | CAKI-1 > 100 µM | M14 5.61 µM | OVCAR-8 > 100 µM | UO-31 > 100 µM | SNB-19 > 100 µM | CCRF-CEM > 100 µM | HCC 2998 > 100 µM | SF-539 > 100 µM | SR > 100 µM | MOLT-4 > 100 µM | EKVX > 100 µM | SK-MEL-2 > 100 µM | HT-29 > 100 µM

Cc1ccc(Nc2nc3c(=O)n(C)c(=O)n(C)c3nc2Nc2ccc(C)cc2)cc1
inactive: SK-OV-3 21.9 µM | OVCAR-4 11.1 µM | OVCAR-5 16.4 µM | CAKI-1 16.4 µM | OVCAR-8 13.6 µM | UO-31 12.1 µM | SNB-19 31.3 µM | CCRF-CEM 2.3 µM | HCC 2998 17.5 µM | SF-539 13.5 µM | SR 5.38 µM | MOLT-4 14.8 µM | DU-145 32.4 µM | EKVX 16 µM | SK-MEL-2 17.8 µM | HT-29 10.4 µM | MDA-N 11.3 µM

CSc1n/c(=N\c2ccccc2)sn1-c1ccccc1
inactive: SK-OV-3 36.6 µM | OVCAR-4 5.3 µM | OVCAR-5 17.3 µM | CAKI-1 13.5 µM | M14 10.7 µM | OVCAR-8 21.7 µM | UO-31 17.3 µM | SNB-19 17.1 µM | CCRF-CEM 11.2 µM | HCC 2998 17.9 µM | SF-539 18.6 µM | SR 17.8 µM | MOLT-4 11.2 µM | EKVX 27.5 µM | SK-MEL-2 17.1 µM | HT-29 3.52 µM

CC(NC1=NCCO1)c1cccc([N+](=O)[O-])c1 (configuration not stated)
inactive: SK-OV-3 > 100 µM | OVCAR-4 > 100 µM | OVCAR-5 > 100 µM | CAKI-1 > 100 µM | M14 > 100 µM | OVCAR-8 > 100 µM | UO-31 > 100 µM | SNB-19 > 100 µM | CCRF-CEM > 100 µM | HCC 2998 > 100 µM | SF-539 > 100 µM | SR > 100 µM | MCF7 > 100 µM | MOLT-4 88.7 µM | DU-145 > 100 µM | EKVX > 100 µM | SK-MEL-2 > 100 µM | HT-29 > 100 µM | MDA-N > 100 µM

CC(=O)Nc1oc(C)nc1C#N
inactive: SK-OV-3 > 100 µM | OVCAR-4 > 100 µM | OVCAR-5 > 100 µM | CAKI-1 > 100 µM | M14 > 100 µM | OVCAR-8 > 100 µM | SNB-19 > 100 µM | CCRF-CEM > 100 µM | SR > 100 µM | MCF7 > 100 µM | MOLT-4 > 100 µM | DU-145 > 100 µM | EKVX > 100 µM | SK-MEL-2 > 100 µM | HT-29 > 100 µM | MDA-N > 100 µM

CSc1nc2c(nc(N)n2C2OC(CO)C(O)C(O)C2O)c(=O)n1C (configuration not stated)
inactive: SK-OV-3 > 100 µM | OVCAR-4 > 100 µM | CAKI-1 > 100 µM | M14 > 100 µM | OVCAR-8 > 100 µM | UO-31 > 100 µM | SNB-19 > 100 µM | CCRF-CEM > 100 µM | HCC 2998 > 100 µM | SF-539 > 100 µM | SR > 100 µM | MOLT-4 > 100 µM | EKVX > 100 µM | HT-29 > 100 µM

CC(=O)OCC1OC(N2C(=O)/C(=N\NC(N)=S)c3ccc([N+](=O)[O-])cc32)C(OC(C)=O)C1OC(C)=O (configuration not stated)
inactive: SK-OV-3 > 100 µM | OVCAR-4 19 µM | OVCAR-5 61.2 µM | CAKI-1 38.4 µM | M14 70.5 µM | OVCAR-8 19.4 µM | SNB-19 62.5 µM | CCRF-CEM 12.9 µM | HCC 2998 26.4 µM | SF-539 24.1 µM | SR 5.98 µM | MOLT-4 15.3 µM | EKVX 36.6 µM | SK-MEL-2 20.7 µM | HT-29 30 µM

COc1cccc2nc3cc(C)c(C)cc3nc12
inactive: SK-OV-3 78.3 µM | OVCAR-4 > 100 µM | OVCAR-5 > 100 µM | CAKI-1 > 100 µM | M14 > 100 µM | OVCAR-8 > 100 µM | UO-31 61.2 µM | SNB-19 > 100 µM | CCRF-CEM > 100 µM | HCC 2998 > 100 µM | SF-539 > 100 µM | SR > 100 µM | MOLT-4 > 100 µM | EKVX > 100 µM | SK-MEL-2 > 100 µM | HT-29 > 100 µM

CC12OC3(C(O)C1O)C(C(=O)O[C@H]3CO[Si](C)(C)C(C)(C)C)C2S(=O)(=O)c1ccccc1 (some centres not stated)
inactive: SK-OV-3 > 100 µM | OVCAR-4 34 µM | OVCAR-5 > 100 µM | M14 51.2 µM | OVCAR-8 29.9 µM | UO-31 40.8 µM | SNB-19 40 µM | SF-539 58.1 µM | SR 41.9 µM | MCF7 36.1 µM | MOLT-4 23.6 µM | DU-145 > 100 µM | EKVX 46.9 µM | SK-MEL-2 88.7 µM | HT-29 33.3 µM | MDA-N 61.4 µM

CC1(CO)C(=O)OC12CCCCC2 (configuration not stated)
inactive: SK-OV-3 > 100 µM | OVCAR-4 > 100 µM | CAKI-1 > 100 µM | M14 > 100 µM | OVCAR-8 > 100 µM | UO-31 63.4 µM | SNB-19 > 100 µM | CCRF-CEM > 100 µM | HCC 2998 > 100 µM | SF-539 > 100 µM | SR 84.9 µM | MOLT-4 > 100 µM | EKVX > 100 µM | SK-MEL-2 > 100 µM | HT-29 > 100 µM

O=C1N2Cc3c4ccc5c3CN3C(=O)N6Cc7c(ccc(c7CN1C6(c1ccccc1)C23c1ccccc1)OCCOCCOc1cc(Br)c(Br)cc1OCCOCCO4)OCCOCCOc1cc(Br)c(Br)cc1OCCOCCO5 (configuration not stated)
inactive: SK-OV-3 > 100 µM | OVCAR-4 36.5 µM | CAKI-1 > 100 µM | M14 21.9 µM | OVCAR-8 > 100 µM | UO-31 > 100 µM | SNB-19 > 100 µM | CCRF-CEM > 100 µM | HCC 2998 > 100 µM | SF-539 20.1 µM | SR > 100 µM | MOLT-4 > 100 µM | EKVX > 100 µM | SK-MEL-2 91 µM | HT-29 > 100 µM
